Reference: patent US8557998B2, “Benzylpiperizine compound” (Dainippon Sumitomo Pharma Co., Ltd, priority 2008, dated 2013)

How the values were obtained:
[1] = target: T1, human serotonin transporter (h-SERT) (Homo sapiens, UniProt P31645); test: Screening test using [3H]citalopram binding for evaluating human serotonin reuptake inhibitory effect; details: h-SERT/CHO membrane preparation, [3H]citalopram approximately 2 nM, room temperature 60 minutes; read-out: Test Example 1: h-SERT binding inhibition constant (Ki)
T1 construct: expressed in transfected cells; host or cells: CHO cells (h-SERT/CHO), Geneticin-selected
T1 sequence (P31645 whole entry): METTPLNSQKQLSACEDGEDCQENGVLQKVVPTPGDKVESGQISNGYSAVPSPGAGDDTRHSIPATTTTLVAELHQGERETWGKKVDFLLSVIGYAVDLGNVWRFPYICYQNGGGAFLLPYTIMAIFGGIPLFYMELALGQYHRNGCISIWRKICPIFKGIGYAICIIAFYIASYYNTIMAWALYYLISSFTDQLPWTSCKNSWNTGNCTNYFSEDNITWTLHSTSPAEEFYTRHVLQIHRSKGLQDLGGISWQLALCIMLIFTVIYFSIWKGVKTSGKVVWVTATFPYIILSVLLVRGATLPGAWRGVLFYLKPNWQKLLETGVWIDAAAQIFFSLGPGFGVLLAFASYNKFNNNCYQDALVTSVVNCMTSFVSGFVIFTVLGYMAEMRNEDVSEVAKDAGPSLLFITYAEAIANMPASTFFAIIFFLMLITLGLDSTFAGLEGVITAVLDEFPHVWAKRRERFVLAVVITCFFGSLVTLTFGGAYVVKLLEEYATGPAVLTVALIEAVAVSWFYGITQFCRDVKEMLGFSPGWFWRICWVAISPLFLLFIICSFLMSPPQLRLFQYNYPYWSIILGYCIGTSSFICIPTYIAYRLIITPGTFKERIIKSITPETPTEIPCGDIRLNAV
Text: CHO cells containing a human serotonin transporter (h-SERT) expressed therein (h-SERT/CHO) were used in the experiment.
1-2 Receptor Binding Experiment
A smaller value of the h-SERT binding inhibition constant Ki means a higher human serotonin reuptake inhibitory effect.

[2] = target: T2, human serotonin 1A receptor (h-5-HT1A) (Homo sapiens, UniProt P08908)
T2 sequence (P08908 1-422): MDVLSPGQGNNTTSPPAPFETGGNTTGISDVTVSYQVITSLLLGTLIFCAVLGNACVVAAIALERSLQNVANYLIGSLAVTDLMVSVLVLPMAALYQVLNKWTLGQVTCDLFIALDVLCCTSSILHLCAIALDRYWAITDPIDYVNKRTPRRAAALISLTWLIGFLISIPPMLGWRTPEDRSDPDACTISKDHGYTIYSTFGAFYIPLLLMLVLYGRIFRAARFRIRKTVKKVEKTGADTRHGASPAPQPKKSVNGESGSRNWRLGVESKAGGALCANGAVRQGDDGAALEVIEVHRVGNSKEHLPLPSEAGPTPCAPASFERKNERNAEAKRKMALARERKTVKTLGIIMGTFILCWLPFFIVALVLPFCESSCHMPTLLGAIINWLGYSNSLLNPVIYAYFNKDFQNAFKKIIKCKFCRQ
Description: The cells were cultured in F12 containing 10% FCS, 500 μg/ml Geneticin, and 100 U/ml penicillin-100 μg/ml streptomycin (all manufactured by Sigma-Aldrich Corp.) in a 5% CO2 incubator. […] Specifically, the cells were dissociated/collected using 50 mM Tris-HCl (pH=7.4). The resulting cells were homogenized using a Teflon (registered trademark) homogenizer and then centrifuged (48,000×g, 20 min, 4° C.). The pellet was resuspended in an appropriate amount of 50 mM Tris-HCl (pH=7.4) and stored at −80° C. until use. The amount of the protein in the membrane preparation was quantified using Dye Reagent Concentrate (manufactured by Bio-Rad Laboratories, Inc.) with bovine serum albumin (manufactured by Sigma-Aldrich Corp.) as a standard.
The reaction solution was reacted at room temperature for 30 minutes and then rapidly filtered by suction at a low pressure through glass fiber filter paper. The glass fiber filter paper was washed twice with 250 μl of 50 mM Tris-HCl (pH=7.4) and then added to a counting vial containing 4 ml of ACS-II (manufactured by Amersham Biosciences). Receptor binding radioactivity remaining on the filter paper was measured using a liquid scintillation counter.

CYP2D6 [3] = target: T3, CYP2D6 (Homo sapiens, UniProt P10635); test: CYP2D6 inhibition screening test; format: in vitro ADME; details: pooled human liver microsomes, substrate bufuralol, 37° C. 10 min, 1'-hydroxybufuralol by LC-MSMS; read-out: Test Example 3: CYP2D6 Inhibition IC50
T3 construct: Pooled of Human Liver Microsomes was purchased from Xenotech, LLC; tissue Xenotech, LLC; host or cells: pooled human liver microsomes
T3 sequence (P10635 whole entry): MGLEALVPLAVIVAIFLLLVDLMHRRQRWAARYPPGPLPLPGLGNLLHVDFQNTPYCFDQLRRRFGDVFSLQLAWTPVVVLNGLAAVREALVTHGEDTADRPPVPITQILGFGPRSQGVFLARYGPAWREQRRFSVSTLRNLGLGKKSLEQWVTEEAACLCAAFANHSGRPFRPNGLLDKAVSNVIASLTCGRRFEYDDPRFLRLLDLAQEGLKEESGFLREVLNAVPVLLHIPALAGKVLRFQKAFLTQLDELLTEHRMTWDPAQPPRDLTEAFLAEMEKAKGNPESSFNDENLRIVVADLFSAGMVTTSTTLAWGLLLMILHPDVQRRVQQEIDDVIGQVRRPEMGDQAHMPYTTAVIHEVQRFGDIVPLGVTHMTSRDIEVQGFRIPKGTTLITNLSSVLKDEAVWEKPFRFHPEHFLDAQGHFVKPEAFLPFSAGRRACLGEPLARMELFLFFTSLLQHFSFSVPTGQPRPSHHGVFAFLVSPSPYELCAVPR
Description: CYP2D6 Inhibition Screening Test
Bufuralol was purchased from Sigma-Aldrich Corp., and Pooled of Human Liver Microsomes was purchased from Xenotech, LLC.
150 μL of Pooled Human Liver Microsomes (20 mg/ml), 12 mL of a 0.5 M potassium phosphate buffer, 1.2 mL of a 165 mM magnesium chloride solution, and 34.65 mL of distilled water were mixed.
Bufuralol was dissolved at a concentration of 2.0 mM in DMSO and then diluted 200-fold with distilled water.
3-3 Experimental Procedures
1. A 10 mM DMSO solution of a test drug was serially diluted 5-fold with DMSO for 4 serial dilutions to prepare 10, 2, 0.4, and 0.08 mM DMSO solutions.
2. Each test drug solution of the step 1. and DMSO were separately diluted 96-fold with a human liver microsome solution, and each dilution was dispensed and 80 μL of each dilution to microplates.
3. 10 μL of a substrate solution and 10 μL of a β-NADPH solution were added to the well of the step 2., followed by incubation at 37° C. for 10 min.
4. The reaction was terminated by the addition of 300 μL of methanol.
5. The reaction mixture was filtered, and LC-MSMS analysis was conducted.
3-4 Quantification and Calculation
The amount of 1′-hydroxybufuralol produced was quantified by LC-MSMS, and this amount was used as a metabolic activity of CYP2D6 for each well. The remaining activity of each sample was determined by comparison with the activity obtained from DMSO as a test drug. An IC50 value of CYP2D6 inhibition was determined from the test drug concentration and remaining activity. The IC50 value was calculated by linear interpolation between two points that span the remaining activity 50%. A larger value of IC50 of CYP2D6 inhibition means weaker CYP2D6 inhibition.

[4] = target: T1, human serotonin transporter (h-SERT); test: Serotonin transporter function inhibition test using [3H]5-HT; format: cell-based; details: h-SERT/CHO cells, [3H]5-HT uptake approximately 10 nM, 37° C. 10 minutes; read-out: Test Example 5: h-SERT Function Inhibition Constant (Ki)
Description: 1-1 Cells Used and Preparation of Cell Suspension
CHO cells containing a human serotonin transporter (h-SERT) expressed therein (h-SERT/CHO) were used in the experiment. […] The collected cells were suspended in a buffer solution containing 0.1 mM CaCl2 and 1 mM MgCl2 in PBS (hereinafter, referred to as PBSCM) and stored in ice until use.
Specifically, 149 μl of the cell suspension (10×10^4 cells/well) and 1 μl of a solution of a test drug dissolved in dimethyl sulfoxide were preincubated at 37° C. for 10 minutes.

CYP2D6 [5] = target: T3, CYP2D6; test: Screening test of the rate of CYP2D6 contribution in human liver microsomal metabolism; format: in vitro ADME; set-up: key to Rate of CYP2D6 Contribution indeterminable due to high stability for human microsomal metabolism: —*^): The rate of CYP2D6 contribution was indeterminable in the present test due to high stability for human microsomal metabolism; details: 1 mg/mL human liver microsomes, 1 μM test substance, 37° C.; for Test Example 4: Rate of CYP2D6 Contribution: with/without quinidine 4 μM
Description: Screening Test of the Rate of CYP2D6 Contribution in Human Liver Microsomal Metabolism
0.2 mL of a 50 mM potassium phosphate buffer solution (pH 7.4) containing NADPH (final concentration: 3 mM, manufactured by Oriental Yeast Co., Ltd.), 1 mg/mL human liver microsomes (manufactured by XENOTECH, LLC), and a 1 μM test substance was heated on a water bath at 37° C. for metabolic reaction. After the reaction for 15 minutes or 30 minutes, methanol was added in a volume 3 times that of the reaction solution, and the mixture was stirred to terminate the reaction. This reaction solution was centrifuged for protein precipitation. Then, the supernatant was collected and subjected to LC-MS/MS analysis. The results were analyzed as follows:
The test substance was quantified, and time-dependent change in the amount of the substance remaining was logarithmically plotted. A metabolic rate was calculated from the slope.
The ratio of the metabolic rate obtained by the addition of quinidine (final concentration: 4 μM) to the reaction solution to the metabolic rate obtained without the addition was used as the rate of contribution of enzymes other than CYP2D6, and the rate of contribution obtained by subtracting this rate of contribution of other enzymes from the total was used as the rate of CYP2D6 contribution. Specifically, it was calculated according to the equation: Rate of contribution(%)={1−(metabolic rate [with quinidine]/metabolic rate[without quinidine])}×100. A smaller value of the rate of CYP2D6 contribution means smaller CYP2D6 contribution.

Row | SMILES | Ki [1] [nM] | Ki [2] [nM] | IC50 (CYP2D6 [3]) [nM] | Ki [4] [nM] | Test Example 4: Rate of CYP2D6 Contribution (CYP2D6 [5]) [%] | Rate of CYP2D6 Contribution indeterminable due to high stability for human microsomal metabolism (CYP2D6 [5])
1 | COCCOc1cc(CC2CCN(CCc3ccc4c(c3)C(=O)CC4)CC2)ccc1Br [Example 1] | 0.87 | 4.5 | 27900 | 8.9 | 36 | 
2 | COCCOc1cc(CC2CCN(CCc3ccc4c(c3)C(=O)CCC4)CC2)ccc1Br [Example 2, 7-(2-{4-[4-Bromo-3-(2-methoxyethoxy)benzyl]piperidin-1-yl}ethyl)-3,4-dihydronaphthalen-1(2H)-one] | 0.7 |  | 12800 | 1.6 | 12 | 
3 | COCCOc1cc(CC2CCN(CCc3ccc4c(c3)C(=O)CCO4)CC2)ccc1Br.Cl [Example 4, 6-(2-{4-[4-Bromo-3-(2-methoxyethoxy)benzyl]piperidin-1-yl}ethyl)-2,3-dihydro-4H-chromen-4-one hydrochloride] |  |  | 22900 |  | 0 | 
4 | COCCOc1cc(CC2CCN(CCc3ccc4c(c3)C(=O)CCCO4)CC2)ccc1Br [Example 6, 7-(2-{4-[4-Bromo-3-(2-methoxyethoxy)benzyl]piperidin-1-yl}ethyl)-3,4-dihydro-1-benzoxepin-5(2H)-one] | 1.2 |  | 24700 | 1.6 | 4.2 | 
5 | COCCOc1cc(CC2CCN(CCc3ccc4c(c3)C(=O)CCO4)CC2)ccc1Cl [Example 7, 6-(2-{4-[4-Chloro-3-(2-methoxyethoxy)benzyl]piperidin-1-yl}ethyl)-2,3-dihydro-4H-chromen-4-one] | 2.7 |  | 17500 | 16 | 54 | 
6 | COCCOc1cc(CC2CCN(CCc3ccc4c(c3)C(=O)CC4)CC2)ccc1C [Example 8, 6-(2-{4-[3-(2-Methoxyethoxy)-4-methylbenzyl]piperidin-1-yl}ethyl)-2,3-dihydro-1H-inden-1-one] | 2.8 | 3.7 | 31000 |  | 9.6 | 
7 | COCCOc1cc(CC2CCN(CCc3ccc4c(c3)C(=O)CCC4)CC2)ccc1C [Example 9, 7-(2-{4-[3-(2-Methoxyethoxy)-4-methylbenzyl]piperidin-1-yl}ethyl)-3,4-dihydronaphthalen-1(2H)-one] | 3.1 | 13 | 33700 |  | 7.8 | 
8 | COCCOc1cc(CC2CCN(CCc3ccc4c(c3)C(=O)CCO4)CC2)ccc1C [Example 10] | 4.2 |  | 21500 | 44 | 49 | 
9 | O=C1CCc2ccc(CCN3CCC(Cc4ccc(Br)c(OCCO)c4)CC3)cc21 [Example 11, 6-(2-{4-[4-Bromo-3-(2-hydroxyethoxy)benzyl]piperidin-1-yl}ethyl)-2,3-dihydro-1H-inden-1-one] | 6.4 | 3.8 | 24600 |  |  | —*^)
10 | O=C1CCCc2ccc(CCN3CCC(Cc4ccc(Br)c(OCCO)c4)CC3)cc21 [Example 12, 7-(2-{4-[4-Bromo-3-(2-hydroxyethoxy)benzyl]piperidin-1-yl}ethyl)-3,4-dihydronaphthalen-1(2H)-one] | 9.2 | 23 | 27900 |  | 17 | 
11 | O=C1CCCOc2ccc(CCN3CCC(Cc4ccc(Br)c(OCCO)c4)CC3)cc21 [Example 14, 7-(2-{4-[4-Bromo-3-(2-hydroxyethoxy)benzyl]piperidin-1-yl}ethyl)-3,4-dihydro-1-benzoxepin-5(2H)-one] | 8.5 | 55 | 34800 |  |  | —*^)
12 | COCCOc1cc(Br)cc(CC2CCN(CCc3ccc4c(c3)C(=O)CC4)CC2)c1 [Example 15, 6-(2-{4-[3-Bromo-5-(2-methoxyethoxy)benzyl]piperidin-1-yl}ethyl)-2,3-dihydro-1H-inden-1-one] | 3.2 | 35 | 36100 |  | 11 | 
13 | COCCOc1cc(Br)cc(CC2CCN(CCc3ccc4c(c3)C(=O)CCC4)CC2)c1 [Example 16, 7-(2-{4-[3-Bromo-5-(2-methoxyethoxy)benzyl]piperidin-1-yl}ethyl)-3,4-dihydronaphthalen-1(2H)-one] | 2.9 | 27 | 26300 |  | 9.2 | 
14 | COCCOc1cc(Br)cc(CC2CCN(CCc3ccc4c(c3)C(=O)CCO4)CC2)c1 [Example 17] | 4 |  | 24600 | 18 | 14 | 
15 | COCCOc1cc(Br)cc(CC2CCN(CCc3ccc4c(c3)C(=O)CCCO4)CC2)c1 [Example 18, 7-(2-{4-[3-Bromo-5-(2-methoxyethoxy)benzyl]piperidin-1-yl}ethyl)-3,4-dihydro-1-benzoxepin-5(2H)-one] | 6.2 | 295 | 27500 |  | 0 | 
16 | COCCOc1cc(Cl)cc(CC2CCN(CCc3ccc4c(c3)C(=O)CC4)CC2)c1 [Example 19, 6-(2-{4-[3-Chloro-5-(2-methoxyethoxy)benzyl]piperidin-1-yl}ethyl)-2,3-dihydro-1H-inden-1-one] | 3 | 29 | 20400 |  | 16 | 
17 | COCCOc1cc(Cl)cc(CC2CCN(CCc3ccc4c(c3)C(=O)CCO4)CC2)c1 [Example 20, 6-(2-{4-[3-Chloro-5-(2-methoxyethoxy)benzyl]piperidin-1-yl}ethyl)-2,3-dihydro-4H-chromen-4-one] | 2.4 | 57 | 23400 |  | 24 | 
